From ChEMBL document CHEMBL1158808, “Eunicellin-based diterpenoids, australins A-D, isolated from the soft coral Cladiella australis” (2005)
Converted amounts (≈) assume the structure as drawn.

How the values were obtained:
Format in all cases: functional
HepG2 = assay: Cytotoxicity against human HepG2 cells after 6 days by MTT assay in presence of DMEM12; details: HepG2, 144 h, read-out: ED50 (the source's name)
MCF7 = assay: Cytotoxicity against human MCF7 cells after 6 days by MTT assay; details: MCF7, 144 h, read-out: ED50 (the source's name)
MDA-MB-231 = assay: Cytotoxicity against human MDA-MB-231 cells after 6 days by MTT assay; details: MDA-MB-231, 144 h, read-out: ED50 (the source's name)

SMILES | EC50 (HepG2) | EC50 (MCF7) | EC50 (MDA-MB-231)
C=C1C[C@@]2(O)O[C@H]([C@@H]3[C@@H](C(C)C)CC[C@@](C)(OC(=O)CCC)[C@@H]32)[C@](C)(O)CC[C@@H]1OC(C)=O [AUSTARLIN B] | 2.4 µg/mL | 8.6 µg/mL (≈ 18.4 µM) | 6.4 µg/mL (≈ 13.7 µM)
C=C1CC[C@H]([C@@H](C)CO)[C@@H]2[C@H]1C(=O)C[C@@](C)(O)[C@H]1CC[C@@](C)(OC(=O)CCC)[C@@H]2O1 [AUSTARLIN D] | – | – | 24.4 µg/mL (≈ 57.7 µM)
